# Measured values published in US20240351994A1, “MAXI-K POTASSIUM CHANNEL OPENERS FOR THE TREATMENT OF FRAGILE X ASSOCIATED DISORDERS” (Kaerus Bioscience Limited, priority 2020, published 2024).
# Legend:
# [1] = biological target: T1, BK channels (HEK-293 cell line expressing functional alpha subunits of BK channels) (Homo sapiens, UniProt Q12791); test: Whole-cell patch clamp assay of BK channel stimulatory activity; assay type: cell-based; settings: 3 μM, percentage of control, stably transfected HEK-293 cells
# T1 construct: expressed in transfected cells; host or cells: HEK-293 (stably transfected; geneticin and blasticidin selection)
# T1 sequence (Q12791 whole entry): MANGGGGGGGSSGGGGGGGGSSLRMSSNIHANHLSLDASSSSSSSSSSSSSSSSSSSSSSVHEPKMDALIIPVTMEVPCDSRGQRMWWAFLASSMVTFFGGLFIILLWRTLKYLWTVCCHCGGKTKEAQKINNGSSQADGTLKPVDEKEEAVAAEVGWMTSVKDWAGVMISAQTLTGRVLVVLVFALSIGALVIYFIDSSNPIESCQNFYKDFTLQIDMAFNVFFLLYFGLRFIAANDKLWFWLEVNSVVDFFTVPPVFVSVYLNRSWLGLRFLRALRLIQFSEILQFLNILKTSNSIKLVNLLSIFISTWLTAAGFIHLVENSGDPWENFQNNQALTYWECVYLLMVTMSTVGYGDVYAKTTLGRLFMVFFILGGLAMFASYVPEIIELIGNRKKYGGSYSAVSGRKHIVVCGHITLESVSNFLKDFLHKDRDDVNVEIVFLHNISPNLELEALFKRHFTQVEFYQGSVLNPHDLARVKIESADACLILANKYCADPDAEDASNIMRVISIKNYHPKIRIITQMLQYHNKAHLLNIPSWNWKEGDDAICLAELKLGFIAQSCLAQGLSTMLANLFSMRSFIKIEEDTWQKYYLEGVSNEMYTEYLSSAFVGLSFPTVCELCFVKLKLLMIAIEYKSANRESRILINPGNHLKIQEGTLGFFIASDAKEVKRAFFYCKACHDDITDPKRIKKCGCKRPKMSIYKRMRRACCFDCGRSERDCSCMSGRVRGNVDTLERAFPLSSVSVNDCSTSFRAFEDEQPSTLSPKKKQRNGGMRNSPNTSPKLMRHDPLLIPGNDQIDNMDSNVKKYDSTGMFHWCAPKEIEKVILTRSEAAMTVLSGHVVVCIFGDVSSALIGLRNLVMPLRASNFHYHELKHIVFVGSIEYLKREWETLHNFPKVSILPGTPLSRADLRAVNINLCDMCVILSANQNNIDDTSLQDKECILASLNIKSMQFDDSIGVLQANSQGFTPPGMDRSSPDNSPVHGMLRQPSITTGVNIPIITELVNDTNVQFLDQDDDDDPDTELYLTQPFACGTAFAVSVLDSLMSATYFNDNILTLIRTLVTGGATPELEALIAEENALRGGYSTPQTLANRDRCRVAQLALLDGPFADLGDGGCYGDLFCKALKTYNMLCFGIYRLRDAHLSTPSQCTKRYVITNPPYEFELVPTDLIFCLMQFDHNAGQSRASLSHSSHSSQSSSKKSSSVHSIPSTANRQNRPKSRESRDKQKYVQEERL
# Procedure: HEK-293 cell line expressing functional alpha subunits of BK channels were passaged at a confluence of 50 to 80%. Cells were seeded into 35 mm sterile culture dishes containing 2 mL culture complete medium. Cells were cultivated at a density that enables single cells (without visible connections to neighbouring cells) to be measured.
# Cells were incubated at 37° C. in a humidified atmosphere with 5% CO2 (relative humidity about 95%). […]
# The 35 mm culture dishes upon which cells were seeded at a density allowing single cells to be recorded were placed on the dish holder of the microscope and continuously perfused (at approximately 1 mL/min) with the bath solution described. […]
# Values (in pA/nA) of the current amplitudes were generated for each voltage step. The recorded current amplitudes at the steady state level of current modulation (+50 mV) were compared to those from control conditions measured in the pre-treatment phase of the same cell with SigmaPlot. The amount of current modulation was calculated as percentage of control. Data from at least 2 individual experiments were collected and the corresponding mean values and standard errors calculated.
# [2] = single intraperitoneal (IP) injection of 2 mg/kg; cited from earlier work
# plasma proteins = settings: cited from earlier work
SMILES,Mean stimulation of BK channel activity at +50 mV [1] [%],Cmax [2],Covalent binding of metabolic degradation product to plasma proteins (plasma proteins)
"COc1ccc(Cl)cc1C1(C)C(=O)Nc2cc(C(F)(F)F)ccc21 (stereo not shown) [Example 1, 3-(5-chloro-2-methoxyphenyl)-3-methyl-6-(trifluoromethyl)indolin-2-one]",204.09,–,–
"COc1ccc(Cl)cc1[C@]1(F)C(=O)Nc2cc(C(F)(F)F)ccc21 [BMS-204352, (3S)-(+)-(5-chloro-2-methoxyphenyl)-1,3-dihydro-3-fluoro-6-(trifluoromethyl)-2H-indol-2-one]",216.59,about 130 ng/mL,gives rise to a metabolic degradation product that covalently binds to plasma proteins
